Assay results as given in publication PMC5514931, “Repositioning chlorpromazine for treating chemoresistant glioma through the inhibition of cytochrome c oxidase bearing the COX4-1 regulatory subunit” (Oncotarget, 2017).

Columns and labels:
[1] = target: T1, cytochrome c oxidase (CcO, complex IV), purified from bovine heart; COX4-1 the most abundant COX4 isoform (Bos taurus, UniProt P00396+P00423); assay: inhibition of purified CcO activity, dose-response; assay type: biochemical
T1 construct: gene COX4I1; purified CcO from bovine heart (Sigma-Aldrich C5499), whole multi-subunit complex; with COX1 and the other CcO subunits

[2] = target: T2, cytochrome c oxidase (CcO, complex IV) bearing the COX4-1 regulatory subunit (Homo sapiens, UniProt P00395+P13073); assay: CcO activity and Michaelis-Menten kinetics in mitochondrial extracts; assay type: biochemical
T2 construct: gene COX4I1; CcO in mitochondrial extracts of UTMZ, U251-TgCOX4-1 (FLAG-tagged COX4-1) and GSC (J × 12, J × 39) cells; with COX1 and the other CcO subunits
T2 sequence (P00414 whole entry): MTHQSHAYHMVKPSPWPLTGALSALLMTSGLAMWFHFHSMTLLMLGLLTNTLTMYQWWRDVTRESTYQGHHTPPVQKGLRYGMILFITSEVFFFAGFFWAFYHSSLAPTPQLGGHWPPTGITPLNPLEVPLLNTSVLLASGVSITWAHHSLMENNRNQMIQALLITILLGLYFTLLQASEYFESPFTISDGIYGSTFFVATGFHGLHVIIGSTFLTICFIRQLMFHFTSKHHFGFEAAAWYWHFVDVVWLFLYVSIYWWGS
T2 sequence (P00403 whole entry, further chain): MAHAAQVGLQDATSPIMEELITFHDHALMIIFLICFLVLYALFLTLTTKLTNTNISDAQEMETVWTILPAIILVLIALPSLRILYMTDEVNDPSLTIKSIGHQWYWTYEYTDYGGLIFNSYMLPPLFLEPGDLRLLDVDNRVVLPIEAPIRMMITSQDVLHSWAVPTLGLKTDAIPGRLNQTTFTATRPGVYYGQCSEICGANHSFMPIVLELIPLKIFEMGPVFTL
T2 sequence (P13073 23-169): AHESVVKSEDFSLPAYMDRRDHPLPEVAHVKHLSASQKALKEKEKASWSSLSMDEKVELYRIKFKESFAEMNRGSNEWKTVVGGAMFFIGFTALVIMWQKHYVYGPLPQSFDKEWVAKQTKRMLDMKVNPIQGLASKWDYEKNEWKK

IC50 [1]: 25.8 ± 3.75 µM | IC50 [2]: ~2 µM
Structure (SMILES): CN(C)CCCN1c2ccccc2Sc2ccc(Cl)cc21 [CPZ, Chlorpromazine]
